Data as given in patent US10227370B2, “Heparan sulfate/heparin mimetics with anti-chemokine and anti-inflammatory activity” (California Institute of Technology, priority 2013, dated 2019).

Assays:
Assay type in all cases: biochemical
[1] = tested on: FXa; test: Chromogenic assay of anti-FXa activity in the presence of ATIII, Example 9
Procedure: All reagents were prepared according to the manufacturer's instructions and incubated at 37° C. for 15 min. Varying concentrations of heparin, low molecular weight heparin, Arixtra® or glycopolymers (0.0005-500 μg/mL; 40 μL) and ATIII (0.04 IU; 40 μL) were added to a microcentrifuge tube, mixed, and incubated at 37° C. for 2 min. To this, FXa (0.32 μg; 40 μL) was added and was incubated at 37° C. for exactly 2 min (stage 1), then FXa chromogenic substrate (48 μmol; 40 μL) was added. Exactly 2 min later (stage 2), the reaction was stopped by introducing citric acid (240 μL; 20 g/L solution). Absorbance at 405 nm was measured on a Uvikon XL spectrophotometer. The sample blank was obtained by mixing the reagents in reverse order from that of the test, i.e. citric acid, FXa substrate, FXa, ATIII, and heparinized sample. The sample blank value was deducted from the absorbance measured for the corresponding assay.

[2] = biological target: T1, FIIa (Homo sapiens, UniProt P01008); test: Chromogenic assay of anti-FIIa activity in the presence of ATIII, Example 9; conditions: FIG. 12, FIG. 13B
T1 construct: purchased
Procedure: All reagents were prepared according to the manufacturer's instructions and incubated at 37° C. for 15 min. Varying concentrations of heparin, low molecular weight heparin, or glycopolymers (0.0005-500 μg/mL; 40 μL) and ATIII (0.01 IU; 40 μL) were added to a microcentrifuge tube, mixed, and incubated at 37° C. for 2 min. To this, FIIa (1.2 nkat; 40 μL) was added and was incubated at 37° C. for exactly 2 min (stage 1), then FIIa chromogenic substrate (0.05 mmol; 40 μL) was added. Exactly 2 min later (stage 2), the reaction was stopped by introducing citric acid (240 μL; 20 g/L). Absorbance at 405 nm was measured. The sample blank was obtained by mixing the reagents in reverse order from that of the test, i.e. citric acid, […], ATIII, and heparinized sample. The sample blank value was deducted from the absorbance measured for the corresponding assay.

[3] = tested on: citrated human plasma; test: Activated partial thromboplastin time (APTT) analysis
Procedure: (§1) Plasma/anticoagulant samples were prepared by mixing 300 μL of the heparin standard or glycopolymer (150 μg/mL) in 0.9% saline and 2.7 mL of citrated human plasma. The tube was inverted 3 times to mix the sample thoroughly. Samples were analyzed by the UCLA Clinical & Translational Research Laboratory using a Sysmex® CA-1500 Coagulation Analyzer (Siemens AG, Erlangen, Germany). Clotting time in the absence of an anticoagulant was determined using 0.9% saline solution water (300 μl). Each clotting assay was performed in triplicate.

[4] = tested on: citrated human plasma; test: Prothrombin time (PT) analysis; conditions: 150 μg/mL stock, 300 μL in 2.7 mL citrated human plasma; saline control 13.3 s
Procedure: as §1, with “Samples were” for “Plasma/anticoagulant samples were”, “saline with” for “saline and”, “mL” for “mL of”, “(300 μL).” for “(300 μl).”

IC50 [1]: 11 ± 0.1 nM
anti-FIIa activity [2]: no appreciable activity
SMILES: CO[C@H]1O[C@H](COS(=O)(=O)O)[C@@H](O[C@@H]2O[C@@H](C(=O)O)[C@@H](O[C@H]3O[C@H](COS(=O)(=O)O)[C@@H](O[C@@H]4O[C@H](C(=O)O)[C@@H](O[C@H]5O[C@H](COS(=O)(=O)O)[C@@H](O)[C@H](O)[C@H]5NS(=O)(=O)O)[C@H](O)[C@H]4O)[C@H](OS(=O)(=O)O)[C@H]3NS(=O)(=O)O)[C@H](O)[C@H]2OS(=O)(=O)O)[C@H](O)[C@H]1NS(=O)(=O)O [Arixtra]
APTT ([3]; 150 μg/mL stock, 300 μL in 2.7 mL citrated human plasma, saline control 31.2 s): 78.3 ± 0.4 s
effect on APTT and PT for clotting compared to the saline control ([3]; same concentration, citrated human plasma): increased only the APTT
PT [4]: 15.1 ± 0.3 s
